In ChEMBL document CHEMBL1201862, “PubChem BioAssay data set” (2004):
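Method: 48-hour compound exposure of cells in 96-well plates, five concentrations, linear interpolation of endpoints. Here, GI50 denotes the concentration required for 50% inhibition of growth.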 Active and inactive are the calls of the source. Cut-off read from the data, not from the text of the source: active = GI50 up to about 1.1 µM and inactive = higher.

How the values were obtained:
Test in all cases: DTP human tumour cell line panel, 48 h
K562 = tested on: K562
SK-OV-3 = tested on: SK-OV-3
OVCAR-5 = tested on: OVCAR-5
NCI-H460 = tested on: NCI-H460
SK-MEL-5 = tested on: SK-MEL-5
SR = tested on: SR
SF-539 = tested on: SF-539
A549 = tested on: A549
CCRF-CEM = tested on: CCRF-CEM
ACHN = tested on: ACHN
IGROV-1 = tested on: IGROV-1
NCI-H23 = tested on: NCI-H23
CAKI-1 = tested on: CAKI-1
EKVX = tested on: EKVX
SK-MEL-28 = tested on: SK-MEL-28
HCC 2998 = tested on: HCC 2998
SNB-75 = tested on: SNB-75
HOP-92 = tested on: HOP-92

SMILES | GI50 (K562) | GI50 (SK-OV-3) | GI50 (OVCAR-5) | GI50 (NCI-H460) | GI50 (SK-MEL-5) | GI50 (SR) | GI50 (SF-539) | GI50 (A549) | GI50 (CCRF-CEM) | GI50 (ACHN) | GI50 (IGROV-1) | GI50 (NCI-H23) | GI50 (CAKI-1) | GI50 (EKVX) | GI50 (SK-MEL-28) | GI50 (HCC 2998) | GI50 (SNB-75) | GI50 (HOP-92)
CCC1=C(CC)C1(C#N)[N+](=O)[O-] | > 100 µM (inactive) | > 100 µM (inactive) | > 100 µM (inactive) | > 100 µM (inactive) | > 100 µM (inactive) | > 100 µM (inactive) | > 100 µM (inactive) | > 100 µM (inactive) | > 100 µM (inactive) | > 100 µM (inactive) | > 100 µM (inactive) | > 100 µM (inactive) | > 100 µM (inactive) | > 100 µM (inactive) |  |  |  | 
CC(C)N(C(=O)C12C3C4C1C1C2C3C41C(=O)N(C(C)C)C(C)C)C(C)C (centres undefined) | > 50 µM (inactive) | > 50 µM (inactive) | > 50 µM (inactive) | > 50 µM (inactive) | > 50 µM (inactive) |  | > 50 µM (inactive) | > 50 µM (inactive) | > 50 µM (inactive) | > 50 µM (inactive) | > 50 µM (inactive) | > 50 µM (inactive) | > 50 µM (inactive) | > 50 µM (inactive) | > 50 µM (inactive) | > 50 µM (inactive) | > 50 µM (inactive) | 
CC(=O)N1CC2Nc3ccccc3C2CC1CO (centres undefined) | > 100 µM (inactive) | > 100 µM (inactive) | > 100 µM (inactive) | > 100 µM (inactive) | > 100 µM (inactive) |  | > 100 µM (inactive) | > 100 µM (inactive) | > 100 µM (inactive) | > 100 µM (inactive) | > 100 µM (inactive) | > 100 µM (inactive) | > 100 µM (inactive) | > 100 µM (inactive) | > 100 µM (inactive) | > 100 µM (inactive) | 17.7 µM (inactive) | > 100 µM (inactive)
CCOC(=O)[C@]12C3C=CC(C3)C1C(=O)C1OC12 (some centres undefined) | > 100 µM (inactive) | > 100 µM (inactive) | > 100 µM (inactive) | > 100 µM (inactive) | > 100 µM (inactive) |  | > 100 µM (inactive) | > 100 µM (inactive) | > 100 µM (inactive) | > 100 µM (inactive) | > 100 µM (inactive) | > 100 µM (inactive) | > 100 µM (inactive) | > 100 µM (inactive) | > 100 µM (inactive) | > 100 µM (inactive) | 81.5 µM (inactive) | 0.109 µM (active)
